Target: T1, dopamine autoreceptor (Rattus norvegicus, UniProt P61169)
T1 construct: homogenized rat striatal brain tissue; from tissue; host or cells: rat striatal brain tissue homogenate
Test: Dopamine autoreceptor affinity, 3H-quinpirole binding in homogenized rat striatal brain tissue
Conditions: for Ratio ant/agonist: ratio of D2 Spiper IC50 to D2 Quin. IC50 (LowAg/HighAg, predicts intrinsic activity)
Procedure: Affinity for the dopamine autoreceptor was established by a modification of the standard experimental test procedure of Seemen and Schaus, European Journal of Pharmacology 203, 105-109 (1991), wherein homogenized rat striatal brain tissue is incubated with ^3H-quinpirole (Quin.)and various concentrations of test compound, filtered and washed and counted in a Betaplate scintillation counter.

T1 sequence (P61169 whole entry): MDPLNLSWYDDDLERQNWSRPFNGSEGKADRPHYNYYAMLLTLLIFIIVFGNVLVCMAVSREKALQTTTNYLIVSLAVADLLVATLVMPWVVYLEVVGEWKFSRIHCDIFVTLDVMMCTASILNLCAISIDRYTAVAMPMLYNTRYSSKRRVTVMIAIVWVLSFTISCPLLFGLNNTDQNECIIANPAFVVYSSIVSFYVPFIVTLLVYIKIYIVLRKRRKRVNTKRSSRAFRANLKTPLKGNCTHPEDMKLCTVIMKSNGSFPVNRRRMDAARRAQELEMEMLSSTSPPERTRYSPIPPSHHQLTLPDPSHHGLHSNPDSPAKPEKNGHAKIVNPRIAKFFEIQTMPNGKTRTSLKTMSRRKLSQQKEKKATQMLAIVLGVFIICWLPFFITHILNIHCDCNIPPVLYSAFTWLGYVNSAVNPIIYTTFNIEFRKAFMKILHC

SMILES | IC50 [µM] | Ratio ant/agonist
Clc1ccc(OCCNCc2ccccc2)c2c(Cl)c[nH]c12 [(1c), Benzyl-[2-(3,7-dichloro-1H-indol-4-yloxy)-ethyl]-amine] | 0.0136 | 21
c1ccc(CNCCOc2cccc3[nH]ccc23)cc1 [(3b), N-Benzyl-[2-(1H-indol-4-yloxy)]-ethylamine] | 0.0194 | 26
Clc1c[nH]c2cccc(OCCNCCCCc3ccccc3)c12 [(2a), [2-(3-Chloro-1H-indol-4-yloxy)-ethyl]-(4-phenyl-butyl)-amine] | 0.00955 | 20
O=C(c1c[nH]c2cccc(OCCNCc3ccccc3)c12)C(F)(F)F [(3a), 1-[4-(2-Benzylamino-ethoxy)-1H-indol-3-yl]-2,2,2-trifluoro-ethanone] | 0.00593 | 48
Clc1ccc(OCCNCc2cccs2)c2c(Cl)c[nH]c12 [(1f), Thien-2-ylmethyl-[2-(3,7-dichloro-1H-indol-4-yloxy)-ethyl]-amine] | 0.0225 | 18
c1ccc(CCCCNCCOc2cccc3[nH]ccc23)cc1 [(1a), [2-(1H-Indol-4-yloxy)-ethyl]-(4-phenyl-butyl)-amine] | 0.0105 | 18
Clc1ccc(OCCNCc2ccccc2)c2cc[nH]c12 [(1b), Benzyl-[2-(7-chloro-1H-indol-4-yloxy)-ethyl]-amine] | 0.0149 | 12

Source: patent EP0923548B1, “4-A[…] AS DOPAMIN D2 AGONISTS AND AS 5HT 1A LIGANDS” (Wyeth, priority 1996, dated 1998)
